Assay results as given in patent publication US9580423B2, “Bicyclic heterocycles as FGFR4 inhibitors” (Incyte Corporation, priority 2015, dated 2017).
Read-outs that look alike come from different tables or passages of the source.

Experiments:
FGFR1 = FGFR1 (Homo sapiens (Human), UniProt P11362); assay: FGFR Enzymatic Assay (FRET peptide phosphorylation), FGFR1; settings: read-out: FGFR1 IC50
Description: (§1) The enzymes were purchased from Millipore or Invitrogen.
(§2) GraphPad prism3 was used to analyze the data. The IC50 values were derived by fitting the data to the equation for a sigmoidal dose-response with a variable slope. Y=Bottom+(Top-Bottom)/(1+10^((LogIC50−X)*HillSlope)) where X is the logarithm of concentration and Y is the response.

FGFR2 = FGFR2 (Homo sapiens (Human), UniProt P21802); assay: FGFR Enzymatic Assay (FRET peptide phosphorylation), FGFR2
Chain of FGFR2 (P21802 22-821): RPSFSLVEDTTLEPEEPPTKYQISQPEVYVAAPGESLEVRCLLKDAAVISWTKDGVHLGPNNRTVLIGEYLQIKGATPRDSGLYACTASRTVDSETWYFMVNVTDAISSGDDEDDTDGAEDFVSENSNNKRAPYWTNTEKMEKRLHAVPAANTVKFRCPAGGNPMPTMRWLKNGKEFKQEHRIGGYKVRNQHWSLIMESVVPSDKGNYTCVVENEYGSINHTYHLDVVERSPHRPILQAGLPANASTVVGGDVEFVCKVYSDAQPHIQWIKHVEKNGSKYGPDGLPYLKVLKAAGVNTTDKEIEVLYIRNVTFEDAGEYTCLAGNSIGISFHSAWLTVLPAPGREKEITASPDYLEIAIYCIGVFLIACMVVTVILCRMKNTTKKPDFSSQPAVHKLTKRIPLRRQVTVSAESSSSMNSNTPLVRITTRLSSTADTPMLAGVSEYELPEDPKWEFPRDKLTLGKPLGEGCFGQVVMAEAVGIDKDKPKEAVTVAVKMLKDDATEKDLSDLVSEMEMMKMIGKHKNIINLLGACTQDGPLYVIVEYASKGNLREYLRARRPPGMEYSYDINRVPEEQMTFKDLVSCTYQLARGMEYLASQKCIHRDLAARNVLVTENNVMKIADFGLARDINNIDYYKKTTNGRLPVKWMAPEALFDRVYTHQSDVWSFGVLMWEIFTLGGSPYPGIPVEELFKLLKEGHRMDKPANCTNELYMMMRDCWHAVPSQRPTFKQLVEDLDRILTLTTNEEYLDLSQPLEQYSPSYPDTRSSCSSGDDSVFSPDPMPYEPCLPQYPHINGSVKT
Description: as §1, §2

FGFR3 = FGFR3 (Homo sapiens (Human), UniProt P22607); assay: FGFR Enzymatic Assay (FRET peptide phosphorylation), FGFR3
Chain of FGFR3 (P22607 23-806): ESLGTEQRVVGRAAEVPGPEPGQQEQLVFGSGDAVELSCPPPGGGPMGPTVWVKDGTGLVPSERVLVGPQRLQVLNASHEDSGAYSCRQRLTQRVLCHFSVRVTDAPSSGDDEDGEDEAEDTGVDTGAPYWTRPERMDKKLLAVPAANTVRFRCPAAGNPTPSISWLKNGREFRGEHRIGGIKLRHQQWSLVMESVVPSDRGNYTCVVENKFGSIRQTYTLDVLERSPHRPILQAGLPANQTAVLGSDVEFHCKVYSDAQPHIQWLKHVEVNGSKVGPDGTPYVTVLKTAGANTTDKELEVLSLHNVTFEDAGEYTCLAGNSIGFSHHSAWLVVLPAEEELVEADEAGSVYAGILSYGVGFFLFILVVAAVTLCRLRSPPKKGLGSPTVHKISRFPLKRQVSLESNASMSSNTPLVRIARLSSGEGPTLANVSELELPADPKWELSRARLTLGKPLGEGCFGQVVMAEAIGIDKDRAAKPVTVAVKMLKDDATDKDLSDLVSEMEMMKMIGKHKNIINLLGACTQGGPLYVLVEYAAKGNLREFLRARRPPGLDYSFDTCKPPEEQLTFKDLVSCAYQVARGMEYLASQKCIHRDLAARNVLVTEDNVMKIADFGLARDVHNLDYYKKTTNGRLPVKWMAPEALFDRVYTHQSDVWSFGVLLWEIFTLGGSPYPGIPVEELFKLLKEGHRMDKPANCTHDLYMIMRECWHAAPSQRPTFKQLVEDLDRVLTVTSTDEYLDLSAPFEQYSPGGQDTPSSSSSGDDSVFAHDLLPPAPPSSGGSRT
Description: as §1, §2

FGFR4 = FGFR4 (Homo sapiens (Human), UniProt P22455); assay: FGFR Enzymatic Assay (FRET peptide phosphorylation), FGFR4; settings: for FGFR1/FGFR4 IC50 ratio / FGFR2/FGFR4 IC50 ratio / FGFR3/FGFR4 IC50 ratio: IC50 ratio showing FGFR4 selectivity
Chain of FGFR4 (P22455 22-802): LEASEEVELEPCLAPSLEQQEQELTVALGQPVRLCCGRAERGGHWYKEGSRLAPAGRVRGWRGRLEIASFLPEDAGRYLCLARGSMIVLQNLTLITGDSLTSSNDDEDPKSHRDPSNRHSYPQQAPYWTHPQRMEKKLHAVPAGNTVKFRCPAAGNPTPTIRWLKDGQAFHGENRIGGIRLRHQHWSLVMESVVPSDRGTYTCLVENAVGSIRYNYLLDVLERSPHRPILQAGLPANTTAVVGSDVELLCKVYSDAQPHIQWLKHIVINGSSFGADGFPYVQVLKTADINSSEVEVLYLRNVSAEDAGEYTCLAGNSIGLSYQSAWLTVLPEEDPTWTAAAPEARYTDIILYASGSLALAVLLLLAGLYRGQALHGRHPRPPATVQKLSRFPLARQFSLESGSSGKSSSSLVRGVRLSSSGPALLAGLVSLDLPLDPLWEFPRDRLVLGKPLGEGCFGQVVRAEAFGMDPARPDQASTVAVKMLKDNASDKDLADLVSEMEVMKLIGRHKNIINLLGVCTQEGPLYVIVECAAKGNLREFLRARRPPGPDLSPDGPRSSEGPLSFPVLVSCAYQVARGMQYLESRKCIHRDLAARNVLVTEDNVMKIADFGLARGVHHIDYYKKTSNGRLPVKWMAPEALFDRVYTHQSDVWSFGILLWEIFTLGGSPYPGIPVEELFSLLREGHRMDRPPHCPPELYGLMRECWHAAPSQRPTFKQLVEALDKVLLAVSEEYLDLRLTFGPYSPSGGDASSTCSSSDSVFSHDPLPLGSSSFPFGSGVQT
Description: as §1, §2

[1] = pre-incubated for 5 to 10 minutes
[2] = read-out: FGFR2 IC50, pre-incubated for 5 to 10 minutes
[3] = read-out: FGFR2 IC50, pre-incubated for 4 hours
[4] = read-out: FGFR3 IC50, pre-incubated for 5 to 10 minutes
[5] = read-out: FGFR3 IC50, pre-incubated for 4 hours
[6] = read-out: FGFR4 IC50, pre-incubated for 5 to 10 minutes
[7] = read-out: FGFR4 IC50, pre-incubated for 4 hours
[8] = FGFR3 IC50 (nM), pre-incubated for 5 to 10 minutes
[9] = FGFR3 IC50 (nM), pre-incubated for 4 hours

Chain of FGFR1 (P11362 22-822): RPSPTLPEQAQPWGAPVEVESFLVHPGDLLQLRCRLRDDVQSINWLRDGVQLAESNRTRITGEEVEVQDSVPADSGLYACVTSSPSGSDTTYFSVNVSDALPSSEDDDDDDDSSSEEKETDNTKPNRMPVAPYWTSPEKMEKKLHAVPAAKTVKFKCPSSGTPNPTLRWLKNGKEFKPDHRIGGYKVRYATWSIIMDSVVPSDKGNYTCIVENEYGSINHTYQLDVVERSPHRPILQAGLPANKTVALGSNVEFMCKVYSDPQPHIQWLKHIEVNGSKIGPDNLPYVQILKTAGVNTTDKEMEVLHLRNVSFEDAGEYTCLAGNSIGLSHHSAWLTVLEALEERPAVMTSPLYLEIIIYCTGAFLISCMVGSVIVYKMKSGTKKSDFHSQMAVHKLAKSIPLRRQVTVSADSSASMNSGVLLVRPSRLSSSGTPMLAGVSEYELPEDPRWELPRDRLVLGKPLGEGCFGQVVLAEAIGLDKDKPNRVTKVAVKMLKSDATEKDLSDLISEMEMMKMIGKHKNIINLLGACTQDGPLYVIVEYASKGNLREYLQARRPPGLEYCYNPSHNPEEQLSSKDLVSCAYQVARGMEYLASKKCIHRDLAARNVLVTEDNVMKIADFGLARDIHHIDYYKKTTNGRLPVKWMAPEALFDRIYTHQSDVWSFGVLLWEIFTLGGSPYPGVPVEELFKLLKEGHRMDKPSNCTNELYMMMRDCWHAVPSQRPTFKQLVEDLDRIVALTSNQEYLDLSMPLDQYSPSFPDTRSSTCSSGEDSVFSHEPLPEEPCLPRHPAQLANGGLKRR

Row | SMILES | IC50 (FGFR1; [1]) [nM] | IC50 (FGFR1; pre-incubated for 4 hours) [nM] | IC50 (FGFR2; [2]) [nM] | IC50 (FGFR2; [3]) [nM] | IC50 (FGFR3; [4]) [nM] | IC50 (FGFR3; [5]) [nM] | FGFR1/FGFR4 IC50 ratio (FGFR4; [1]) | FGFR2/FGFR4 IC50 ratio (FGFR4; [1]) | FGFR3/FGFR4 IC50 ratio (FGFR4; [1]) | FGFR1/FGFR4 IC50 ratio (FGFR4; pre-incubated for 4 hours) | FGFR2/FGFR4 IC50 ratio (FGFR4; pre-incubated for 4 hours) | FGFR3/FGFR4 IC50 ratio (FGFR4; pre-incubated for 4 hours) | IC50 (FGFR4; [6]) [nM] | IC50 (FGFR4; [7]) [nM] | IC50 (FGFR4) [nM] | IC50 (FGFR2) [nM] | IC50 (FGFR3; [8]) [nM] | IC50 (FGFR3; [9]) [nM]
1 | C=CC(=O)Nc1cc(-c2cc3c(cn2)CN(c2c(F)c(OC)cc(OC)c2F)C(=O)C32CC2)cc(N2CCOCC2)c1 [Example 10, N-{3-[2′-(2,6-difluoro-3,5-dimethoxyphenyl)-3′-oxo-2′,3′-dihydro-1′H-spiro[cyclopropane-1,4′-[2,7]naphthyridin]-6′-yl]-5-morpholin-4-ylphenyl}acrylamide] | > 200 | > 200 | > 200 | > 200 | > 200 | > 200 | >100 | >100 | >100 | >100 | >100 | >100 | < 10 | < 10 |  |  |  | 
2 | C=CC(=O)Nc1cncc(-c2cc3c(cn2)CN(c2c(F)c(OC)cc(OC)c2F)C(=O)C32CC2)c1 [Example 3, N-(5-(2′-(2,6-difluoro-3,5-dimethoxyphenyl)-3′-oxo-2′,3′-dihydro-1′H-spiro[cyclopropane-1,4′-[2,7]naphthyridine]-6′-yl)pyridin-3-yl)acrylamide] |  |  | 30 to 200 |  |  |  |  |  |  |  |  |  | < 10 | < 10 |  | 30 to 200 | 30 to 200 | 30 to 200
3 | C=CC(=O)Nc1cccc(-c2cc3c(cn2)CN(c2c(F)c(OC)cc(OC)c2F)C(=O)C32CC2)c1 [Example 1, N-{3-[2′-(2,6-difluoro-3,5-dimethoxyphenyl)-3′-oxo-2′,3′-dihydro-1′H-spiro[cyclopropane-1,4′-[2,7]naphthyridin]-6′-yl]phenyl}acrylamide] |  |  |  |  |  |  |  |  |  |  |  |  | < 10 | < 10 |  |  | 10 to 30 | 10 to 30
4 | C=CC(=O)Nc1cc(-c2cc3c(cn2)CN(c2c(F)c(OC)cc(OC)c2F)C(=O)C32CC2)ccn1 [Example 4, N-(4-(2′-(2,6-difluoro-3,5-dimethoxyphenyl)-3′-oxo-2′,3′-dihydro-1′H-spiro[cyclopropane-1,4′-[2,7]naphthyridine]-6′-yl)pyridin-2-yl)acrylamide] |  |  |  |  |  |  |  |  |  |  |  |  |  |  |  |  | 10 to 30 | 10 to 30
5 | C=CC(=O)Nc1cnn(CC(=O)NC)c1-c1cc2c(cn1)CN(c1c(F)c(OC)cc(OC)c1F)C(=O)C21CC1 [Example 20, N-(5-(2′-(2,6-difluoro-3,5-dimethoxyphenyl)-3′-oxo-2′,3′-dihydro-1′H-spiro[cyclopropane-l,4′[2,7]naphthyridine]-6′-yl)-1-(2-(methylamino)-2-oxoethyl)-1H-pyrazol-4-yl)acrylamide] |  |  |  |  |  |  |  |  |  | >50 | >100 | >100 |  |  |  |  |  | 
6 | C=CC(=O)Nc1ccc(C)c(-c2cc3c(cn2)CN(c2c(F)c(OC)cc(OC)c2F)C(=O)C32CC2)c1 [Example 2, N-(3-(2′-(2,6-difluoro-3,5-dimethoxyphenyl)-3′-oxo-2′,3′-dihydro-1′H-spiro[cyclopropane-1,4′-[2,7]naphthyridine]-6′-yl)-4-methylphenyl)acrylamide] | > 200 | > 200 | > 200 | > 200 | > 200 | > 200 | >100 | >100 | >100 | >100 | >100 | >100 | < 10 | < 10 |  |  |  | 
7 | C=CC(=O)Nc1cnn(C[C@@H]2CCOC2)c1-c1cc2c(cn1)CN(c1c(F)c(OC)cc(OC)c1F)C(=O)C21CC1 [Example 28, (S)-N-(5-(2′-(2,6-difluoro-3,5-dimethoxyphenyl)-3′-oxo-2′,3′-dihydro-1′H-spiro[cyclopropane-1,4′-[2,7]naphthyridine]-6′-yl)-1-((tetrahydrofuran-3-yl)methyl)-1H-pyrazol-4-yl)acrylamide] |  | > 200 |  | > 200 |  | > 200 |  |  |  | >100 | >100 | >100 |  |  | 10 to 30 |  |  | 
8 | C=CC(=O)N(C)c1cccc(-c2cc3c(cn2)CN(c2c(F)c(OC)cc(OC)c2F)C(=O)C32CC2)c1 [Example 9, N-(3-(2′-(2,6-difluoro-3,5-dimethoxyphenyl)-3′-oxo-2′,3′-dihydro-1′H-spiro[cyclopropane-1,4′-[2,7]naphthyridine]-6′-yl)phenyl)-N-methylacrylamide] |  |  | 30 to 200 |  |  |  |  |  |  |  |  |  | < 10 | < 10 |  | 30 to 200 | 10 to 30 | 10 to 30

Other lines, results leading:

Row | IC50 (FGFR1; [1]) [nM] | IC50 (FGFR1; pre-incubated for 4 hours) [nM] | IC50 (FGFR2; [2]) [nM] | IC50 (FGFR2; [3]) [nM] | IC50 (FGFR3; [4]) [nM] | IC50 (FGFR3; [5]) [nM] | FGFR1/FGFR4 IC50 ratio (FGFR4; [1]) | FGFR2/FGFR4 IC50 ratio (FGFR4; [1]) | FGFR3/FGFR4 IC50 ratio (FGFR4; [1]) | FGFR1/FGFR4 IC50 ratio (FGFR4; pre-incubated for 4 hours) | FGFR2/FGFR4 IC50 ratio (FGFR4; pre-incubated for 4 hours) | FGFR3/FGFR4 IC50 ratio (FGFR4; pre-incubated for 4 hours) | IC50 (FGFR4; [6]) [nM] | IC50 (FGFR4; [7]) [nM] | IC50 (FGFR4) [nM] | IC50 (FGFR2) [nM] | IC50 (FGFR3; [8]) [nM] | IC50 (FGFR3; [9]) [nM] | SMILES
9 |  | > 200 |  | > 200 |  | > 200 |  |  |  | >100 | >50 | >100 |  |  | 10 to 30 |  |  |  | C=CC(=O)Nc1cnn(Cc2ccnn2C)c1-c1cc2c(cn1)CN(c1c(F)c(OC)cc(OC)c1F)C(=O)C21CC1 [Example 26, N-(5-(2′-(2,6-difluoro-3,5-dimethoxyphenyl)-3′-oxo-2′,3′-dihydro-1′H-spiro[cyclopropane-1,4′-[2,7]naphthyridine]-6′-yl)-1-((1-methyl-1H-pyrazol-5-yl)methyl)-1H-pyrazol-4-yl)acrylamide]
10 |  | > 200 |  | > 200 |  | > 200 |  |  |  | >100 | >100 | >100 |  | < 10 |  |  |  |  | C=CC(=O)Nc1cnn(CCO)c1-c1cc2c(cn1)CN(c1c(F)c(OC)cc(OC)c1F)C(=O)C21CC1 [Example 17, N-(5-(2′-(2,6-difluoro-3,5-dimethoxyphenyl)-3′-oxo2′,3′-dihydro-1′H-spiro[cyclopropane-1,4′-[2,7]naphthyridine]-6′-yl)-1-(2-hydroxyethyl)-1H-pyrazol-4-yl)acrylamide]
11 |  | > 200 |  | > 200 |  | > 200 |  |  |  | >100 | >100 | >100 |  |  | 10 to 30 |  |  |  | C=CC(=O)Nc1cnn(CC2CCOCC2)c1-c1cc2c(cn1)CN(c1c(F)c(OC)cc(OC)c1F)C(=O)C21CC1 [Example 24, N-(5-(2′-(2,6-difluoro-3,5-dimethoxyphenyl)-3′-oxo,2′,3′-dihydro-1′H-spiro[cyclopropane-1,4′-[2,7]naphthyridine]-6′-yl)-1-((tetrahydro-2H-pyran-4-yl)methyl)-1H-pyrazol-4-yl)acrylamide]
12 |  | > 200 |  | > 200 |  | > 200 |  |  |  | >100 | >100 | >100 |  | < 10 |  |  |  |  | C=CC(=O)Nc1cn(CC(=O)N(C)C)nc1-c1cc2c(cn1)CN(c1c(F)c(OC)cc(OC)c1F)C(=O)C21CC1 [Example 36, N-(3-(2′-(2,6-difluoro-3,5-dimethoxyphenyl)-3′-oxo-2′,3′-dihydro-1′H-spiro[cyclopropane-1,4′-[2,7]naphthyridine]-6′-yl)-1-(2-(dimethylamino)-2-oxoethyl)-1H-pyrazol-4-yl)acrylamide]
13 |  | > 200 |  | > 200 |  | > 200 |  |  |  | >100 | >50 | >100 |  |  | 10 to 30 |  |  |  | C=CC(=O)Nc1cnn(C2CCOCC2)c1-c1cc2c(cn1)CN(c1c(F)c(OC)cc(OC)c1F)C(=O)C21CC1 [Example 18, N-(5-(2′-(2,6-difluoro-3,5-dimethoxyphenyl)-3′,-oxo-2′,3′-dihydro-1′H-spiro[cyclopropane-1,4′-[2,7]naphthyridine]-6′-yl)-1-(tetrahydro-2H-pyran-4-yl)-1H-pyrazol-4-yl)acrylamide]
14 |  | > 200 |  | > 200 |  | > 200 |  |  |  | >100 | >100 | >100 |  | < 10 |  |  |  |  | C=CC(=O)Nc1cn(CCOC(F)(F)F)nc1-c1cc2c(cn1)CN(c1c(F)c(OC)cc(OC)c1F)C(=O)C21CC1 [Example 33, N-(3-(2′-(2,6-difluoro-3,5-dimethoxyphenyl)-3′-oxo-2′,3′-dihydro-1′H-spiro[cyclopropane-1,4′-[2,7]naphthyridine]-6′-yl)-1-(2-(trifluoromethoxy)ethyl)-1H-pyrazol-4-yl)acrylamide]
15 |  | > 200 |  | > 200 |  | > 200 |  |  |  | >100 | >100 | >100 |  | < 10 |  |  |  |  | C=CC(=O)Nc1cn(CCOC)nc1-c1cc2c(cn1)CN(c1c(F)c(OC)cc(OC)c1F)C(=O)C21CC1 [Example 32, N-(3-(2′-(2,6-difluoro-3,5-dimethoxyphenyl)-3′-oxo-2′,3′-dihydro-1′H-spiro[cyclopropane-1,4′-[2,7]naphthyridine]-6′-yl)-1-(2-methoxyethyl)-1H-pyrazol-4-yl)acrylamide]
16 |  |  | 30 to 200 |  |  |  |  |  |  |  |  |  | < 10 | < 10 |  | 30 to 200 | 30 to 200 | 30 to 200 | C=CC(=O)Nc1cc(-c2cc3c(cn2)CN(c2c(F)c(OC)cc(OC)c2F)C(=O)C32CC2)ccc1CO [Example 13, N-(5-(2′-(2,6-difluoro-3,5-dimethoxyphenyl)-3′-oxo-2′,3′-dihydro-1′H-spiro[cyclopropane-1,4′-[2,7]naphthyridine]-6′-yl)-2-(hydroxymethyl)phenyl)acrylamide]
